The target of assay [1] is human glucocorticoid receptor (Homo sapiens (Human), UniProt P04150). Put plainly: Human glucocorticoid receptor (hGR) ligand-binding assay (3H-dexamethasone competition, IM9 cytosol). Particulars: read-out: % inhibition hGR at 1 μM. The method, then:
Preferably, the glucocortitcoid receptor extracted from cytosol of IM9 cells is used for competitive radioligand binding assays to calculate percentage inhibition of the binding of radiolabeled ligand 3H-dexamethasone at the human glucocorticoid receptor.
The human lymphoblast cell line IM9 (ATCC, Bethesda, MD) was cultivated in RPMI 1640 media containing 10% fetal bovine serum, penicillin (100 U/ml), streptomycin (100 μg/ml), and 2 mM L-glutamine at 37° and 7% CO2 in a humidified incubator. Cells were centrifuged for 10 minutes at 1500 g and were washed in PBS and repelleted. Cell were then resuspended in homogenization buffer consisting of: 10 mM TES, 10 mM sodium molybdate, 1 mM EDTA, pH 7.4, 20 mM 2-mercaptoethanol, and 10% glycerol. Disruption of the cells was performed by nitrogen cavitation using 2×15 minutes at 600 to 750 psi nitrogen in a N2 cavitator at 0° C. The cell preparation was then centrifuged at 27,000 g for 15 minutes, and the resultant supernatant (=cytosol of IM9 cells) was centrifuged at 103,000 g for 60 minutes at 4° C. The amount of protein in the supernatant fraction was determined using a BCA assay kit and aliquots were snap frozen in a dry ice-acetone bath and stored at −70° C. Competitive binding assays were done in duplicate in homogenization buffer with a total volume of 200 μl. To this end, 1 mg of IM9 cytosol, 0.05 μCi (1.5 nM) of 3H-dexamethasone and unlabeled Example compounds as competitor compounds at 1 μM were mixed. The reaction was stopped after incubation at 0° C. for 16 to 18 hours by the addition of 100 μl of a charcoal-dextran mixture (2% activated charcoal, 0.5% dextran in 10 mM Tris, 1 mM EDTA, pH 7.4). Another incubation step at 0° C. for 10 minutes followed before the samples were centrifuged for 5 minutes at 8200 g. 100 μl of the supernatant) was finally assayed for radioactivity by liquid scintillationspectrometry, and percentage inhibition of 3H-dexamethasone binding was calculated.

Assay [2] concerns the target glucocorticoid receptor (GAL4 DBD-GR) (Homo sapiens (Human), UniProt P04150). Put plainly: GR cell-based assays (GRE agonist / GRE antagonist), CHO-Gal4/GR luciferase reporter. Particulars: read-out: IC50 or EC50. In a few lines: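 CHO cells stably carrying GAL4 DBD-GR ligand-binding-domain fusion and a GAL4-UAS firefly luciferase reporter were treated in Opti-MEM with 8 half-log concentrations from 10 μM to 0.003 μM (0.5% DMSO, quadruplicates). Antagonist mode measured repression of beclomethasone-induced signal. Luminescence after lysis gave EC50 or IC50.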
A general note: In a reporter assay the amount or activity of a reporter protein is the signal.

Usually inhibition stands for the change of the read-out against control, counted positive when it falls. What is called IC50 is the concentration that inhibits the measured activity by half.

Molecules are shown by their SMILES.

Chain of human glucocorticoid receptor (P04150 whole entry): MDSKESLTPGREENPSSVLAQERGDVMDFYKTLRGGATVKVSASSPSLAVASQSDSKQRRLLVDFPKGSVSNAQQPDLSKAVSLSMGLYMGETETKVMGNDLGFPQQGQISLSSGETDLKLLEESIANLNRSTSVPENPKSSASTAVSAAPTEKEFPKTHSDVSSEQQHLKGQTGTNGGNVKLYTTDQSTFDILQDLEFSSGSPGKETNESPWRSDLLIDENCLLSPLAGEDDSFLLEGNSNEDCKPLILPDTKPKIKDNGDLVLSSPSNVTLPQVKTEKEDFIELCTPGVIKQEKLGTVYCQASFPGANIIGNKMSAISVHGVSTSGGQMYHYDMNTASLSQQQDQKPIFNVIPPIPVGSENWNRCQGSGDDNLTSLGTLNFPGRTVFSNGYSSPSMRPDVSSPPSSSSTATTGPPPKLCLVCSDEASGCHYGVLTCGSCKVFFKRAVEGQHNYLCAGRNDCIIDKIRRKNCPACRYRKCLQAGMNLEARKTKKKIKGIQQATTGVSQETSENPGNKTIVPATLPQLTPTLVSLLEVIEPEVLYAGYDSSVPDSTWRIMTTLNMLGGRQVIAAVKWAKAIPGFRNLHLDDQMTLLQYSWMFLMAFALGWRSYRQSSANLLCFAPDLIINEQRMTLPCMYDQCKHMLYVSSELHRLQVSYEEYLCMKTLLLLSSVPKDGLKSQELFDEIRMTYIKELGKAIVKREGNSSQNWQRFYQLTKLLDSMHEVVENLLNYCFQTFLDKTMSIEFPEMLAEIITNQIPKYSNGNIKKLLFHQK
Chain of glucocorticoid receptor (GAL4 DBD-GR) (P04150 524-758): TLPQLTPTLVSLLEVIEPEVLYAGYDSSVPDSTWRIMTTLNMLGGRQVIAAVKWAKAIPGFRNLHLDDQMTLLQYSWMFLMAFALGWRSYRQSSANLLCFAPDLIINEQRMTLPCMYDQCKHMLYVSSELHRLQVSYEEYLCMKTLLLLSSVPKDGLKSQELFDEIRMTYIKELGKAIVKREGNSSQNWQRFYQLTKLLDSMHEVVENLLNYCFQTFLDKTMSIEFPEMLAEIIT

Regarding `Cn1cc(-n2ncc3cc(N4C(=O)C(C)(C)[C@H](NC(=O)c5cncs5)[C@H]4c4ccccc4)ccc32)ccc1=O` [Example 15, N-[(2R,3S)-4,4-Dimethyl-1-[1-(1-methyl-6-oxo-1H-pyridin-3-yl)-1H-indazol-5-yl]-5-oxo-2-phenyl-pyrrolidin-3-yl]-thiazole-5-carboxylic acid amide], the inhibition at 1 µM in assay [1] turned out to be 87%.
Still for that read-out and setting: under `Cn1cc(-n2ncc3cc(N4C(=O)C(C)(C)[C@H](NC(=O)C(C)(F)F)[C@H]4c4ccccc4)ccc32)ccc1=O` [Example 9, N-[(2R,3S)-4,4-Dimethyl-1-[1-(1-methyl-6-oxo-1H-pyridin-3-yl)-1H-indazol-5-yl]-5-oxo-2-phenyl-pyrrolidin-3-yl]-2,2-difluoro-propionamide] stands 86%; under `Cn1cc(-n2ncc3cc(N4C(=O)C(C)(C)[C@@H](NC(=O)C(C)(F)F)[C@@H]4c4ccccc4)ccc32)ccc1=O` [Example 8, N-[(2S,3R)-4,4-Dimethyl-1-[1-(1-methyl-6-oxo-1H-pyridin-3-yl)-1H-indazol-5-yl]-5-oxo-2-phenyl-pyrrolidin-3-yl]-2,2-difluoro-propionamide], 12%.
Same read-out and setting: under `CC(F)(F)C(=O)N[C@@H]1[C@@H](c2ccccc2)N(c2ccc3c(cnn3-c3ccc(F)cc3)c2)C(=O)C1(C)C` [Example 10, 2,2-Difluoro-N-[(2R,3S)-1-[1-(4-fluorophenyl)-1H-indazol-5-yl]-4,4-dimethyl-5-oxo-2-phenyl-pyrrolidin-3-yl]-propionamide] stands 100%.
As to `Cn1ccc(C(=O)N[C@@H]2[C@@H](c3ccccc3)N(c3ccc4c(cnn4-c4ccc(=O)n(C)c4)c3)C(=O)C2(C)C)n1` [Example 12, N-[(2R,3S)-4,4-Dimethyl-1-[1-(1-methyl-6-oxo-1H-pyridin-3-yl)-1H-indazol-5-yl]-5-oxo-2-phenyl-pyrrolidin-3-yl]-1-methyl-1H-pyrazole-3-carboxylic acid amide], the inhibition at 1 µM in assay [1] was found to be 83%.
With `Cc1cc(C(=O)N[C@H]2[C@H](c3ccccc3)N(c3ccc4c(cnn4-c4ccc(=O)n(C)c4)c3)C(=O)C2(C)C)no1` [Example 22, N-[(2S,3R)-4,4-Dimethyl-1-[1-(1-methyl-6-oxo-1H-pyridin-3-yl)-1H-indazol-5-yl]-5-oxo-2-phenyl-pyrrolidin-3-yl]-5-methyl-isoxazole-3-carboxylic acid amide], the inhibition at 1 µM in assay [1] came out at 18%.
The same measure, in the same setting: under `Cc1scnc1C(=O)N[C@@H]1[C@@H](c2ccccc2)N(c2ccc3c(cnn3-c3ccc(=O)n(C)c3)c2)C(=O)C1(C)C` [Example 18, N-[(2R,3S)-4,4-Dimethyl-1-[1-(1-methyl-6-oxo-1H-pyridin-3-yl)-1H-indazol-5-yl]-5-oxo-2-phenyl-pyrrolidin-3-yl]-5-methyl-thiazole-4-carboxylic acid amide] stands 29%.
Still for that read-out and setting: under `Cn1cc(-n2ncc3cc(N4C(=O)C(C)(C)[C@@H](NC(=O)c5cnco5)[C@@H]4c4ccccc4)ccc32)ccc1=O` [Example 21, N-[(2S,3R)-4,4-Dimethyl-1-[1-(1-methyl-6-oxo-1H-pyridin-3-yl)-1H-indazol-5-yl]-5-oxo-2-phenyl-pyrrolidin-3-yl]-oxazole-5-carboxylic acid amide] stands 22%.
Still for that read-out and setting: under `Cc1nc(C(=O)N[C@@H]2[C@@H](c3ccccc3)N(c3ccc4c(cnn4-c4ccc(=O)n(C)c4)c3)C(=O)C2(C)C)no1` [Example 14, N-[(2R,3S)-4,4-Dimethyl-1-[1-(1-methyl-6-oxo-1H-pyridin-3-yl)-1H-indazol-5-yl]-5-oxo-2-phenyl-pyrrolidin-3-yl]-5-methyl-[1,2,4]oxadiazole-3-carboxylic acid amide] stands 84%; under `Cn1cc(-n2ncc3cc(N4C(=O)C(C)(C)[C@@H](NC(=O)c5cncs5)[C@@H]4c4ccccc4)ccc32)ccc1=O` [Example 24, N-[(2S,3R)-4,4-Dimethyl-1-[1-(1-methyl-6-oxo-1H-pyridin-3-yl)-1H-indazol-5-yl]-5-oxo-2-phenyl-pyrrolidin-3-yl]-thiazole-5-carboxylic acid amide], 12%; under `Cc1ncsc1C(=O)N[C@@H]1[C@@H](c2ccccc2)N(c2ccc3c(cnn3-c3ccc(=O)n(C)c3)c2)C(=O)C1(C)C` [Example 16, N-[(2R,3S)-4,4-Dimethyl-1-[1-(1-methyl-6-oxo-1H-pyridin-3-yl)-1H-indazol-5-yl]-5-oxo-2-phenyl-pyrrolidin-3-yl]-4-methyl-thiazole-5-carboxylic acid amide], 30%.
On to `Cn1cc(-n2ncc3cc(N4C(=O)C(C)(C)[C@H](NC(=O)c5cnco5)[C@H]4c4ccccc4)ccc32)ccc1=O` [Example 13, N-[(2R,3S)-4,4-Dimethyl-1-[1-(1-methyl-6-oxo-1H-pyridin-3-yl)-1H-indazol-5-yl]-5-oxo-2-phenyl-pyrrolidin-3-yl]-oxazole-5-carboxylic acid amide], for which the inhibition at 1 µM in assay [1] came out at 20%.
Take `CC(F)(F)C(=O)N[C@H]1CC(=O)N(c2ccc3c(cnn3-c3ccc(F)cc3)c2)[C@]1(C)c1ccccc1` (racemic) [Example 100, 2,2-Difluoro-N-[rac-(2R,3S)-1-[1-(4-fluorophenyl)-1H-indazol-5-yl]-2-methyl-5-oxo-2-phenyl-pyrrolidin-3-yl]-propionamide]: the half-inhibitory concentration (IC50) in assay [2] is below 0.1 µM.
Regarding `Cn1cc(-n2ncc3cc(N4C(=O)C5(CC5)[C@H](NC(=O)C5CC5)[C@H]4c4ccccc4)ccc32)ccc1=O` (racemic) [Example 30, N-[rac-(6R,7S)-5-[1-(1-Methyl-6-oxo-1H-pyridin-3-yl)-1H-indazol-5-yl]-4-oxo-6-phenyl-5-azaspiro[2.4]heptan-7-yl]-cyclopropanecarboxylic acid amide], the inhibition at 1 µM in assay [1] is 27%.
As to `CC[C@@]1(C)C(=O)N(c2ccc3c(cnn3-c3ccc(F)cc3)c2)[C@H](c2ccccc2)[C@H]1NC(=O)C1CC1` (racemic) [Example 134, N-(rac-(2R,3S,4R)-4-ethyl-1-(1-(4-fluorophenyl)-1H-indazol-5-yl)-4-methyl-5-oxo-2-phenylpyrrolidin-3-yl)cyclopropanecarboxamide], the half-inhibitory concentration (IC50) in assay [2] lay within 0.1 to 1 µM.
In the case of `Cc1cccc([C@@H]2[C@@H](NC(=O)c3ccn(C)n3)[C@@H](C)C(=O)N2c2ccc3c(cnn3-c3ccc(F)cc3)c2)c1` (racemic) [Example 72, N-[rac-(2R,3S,4R)-1-[1-(4-Fluorophenyl)-1H-indazol-5-yl]-4-methyl-2-m-tolyl-5-oxo-pyrrolidin-3-yl]-1-methyl-1H-pyrazole-3-carboxylic acid amide], the half-maximal inhibitory concentration (IC50) in assay [2] is below 0.1 µM.
Still for that read-out and setting: under `C[C@@H]1C(=O)N(c2ccc3c(cnn3-c3ccc(F)cc3)c2)[C@H](c2ccccc2)[C@H]1NS(C)(=O)=O` (racemic) [Example 61, N-[rac-(2R,3S,4S)-1-[1-(4-Fluorophenyl)-1H-indazol-5-yl]-4-methyl-5-oxo-2-phenyl-pyrrolidin-3-yl]-methanesulfonic acid amide] stands 0.1 to 1 µM; under `CC[C@@H]1[C@@H](NC(=O)c2ncccn2)[C@H](Cc2ccccc2)C(=O)N1c1ccc2c(cnn2-c2ccc(F)cc2)c1` (racemic) [Example 90, N-[rac-(2R,3S,4S)-4-Benzyl-2-ethyl-1-[1-(4-fluorophenyl)-1H-indazol-5-yl]-5-oxo-pyrrolidin-3-yl]-pyrimidine-2-carboxylic acid amide], 1 to 15 µM; under `COc1ccc([C@@H]2[C@@H](NC(=O)c3cccnc3)[C@H](C)C(=O)N2c2ccc3c(cnn3-c3ccc(F)cc3)c2)cc1` (racemic) [Example 84, N-[rac-(2R,3S,4S)-1-[1-(4-Fluorophenyl)-1H-indazol-5-yl]-2-(4-methoxyphenyl)-4-methyl-5-oxo-pyrrolidin-3-yl]-pyridine-3-carboxylic acid amide], 0.1 to 1 µM.
On the same count and under the same terms, under `C[C@@H]1C(=O)N(c2ccc3c(cnn3-c3ccc(F)cc3)c2)[C@H](c2ccccc2Cl)[C@H]1NC(=O)C(C)(F)F` (racemic) [Example 47, N-[rac-(2R,3S,4S)-2-(2-Chlorophenyl)-1-[1-(4-fluorophenyl)-1H-indazol-5-yl]-4-methyl-5-oxo-pyrrolidin-3-yl]-2,2-difluoro-propionamide] stands below 0.1 µM.
For the compound `CC1(C)C(=O)N(c2ccc3c(cnn3-c3ccc(F)cc3)c2)[C@@H](c2ccccc2)[C@@H]1NC(=O)c1ncccn1` [Example 43b, N-((2S,3R)-1-(1-(4-fluorophenyl)-1H-indazol-5-yl)-4,4-dimethyl-5-oxo-2-phenylpyrrolidin-3-yl)pyrimidine-2-carboxamide], in assay [2], the IC50 was in the range of 1 to 15 µM.
